We go through 25 compounds from PMC8081377 (Mutagenesis, 2021).

Each structure is given as a SMILES string. Counter-ions that a name gives are not always drawn. Like-named read-outs stand apart in the source and are kept apart here.

For data set [1], the system named is EpiDerm™ EPI-200-MNA skin tissues.
For data set [2] the test system is unchanged. The source holds these as a separate data set.
The mark [3] stands for this setting: % VCC or % BN, lab(s) as stated in the text.
Where [4] appears, read: three treatments, vs solvent control.
Where [5] appears, read: two treatments, vs solvent control.
Setting [6] is: lack of excessive cytotoxicity, 48-h protocol.

`O=[N+]([O-])c1cccc2ccccc12` [1-Nitronaphthalene]: the “classification in the RSMN assay by Lab A” value (“classification … by Lab A” below) in data set [1] is given as “negative”. For the same compound, the “top/maximum dose tested, limited by excessive or strong cytotoxicity” value (“top/maximum dose tested, limited” below) in data set [2] (setting [3]) is on record as 50–80 µg/cm^2.

`Oc1cccc2cccnc12` [8-Hydroxyquinoline]: in data set [1], the “classification in the RSMN assay by Lab D” value (shortened to “classification … by Lab D”) is “negative”. For the same compound, the “top/maximum dose tested, limited” value in data set [2] (human) amounted to 48 µg/cm^2.

On to `Cc1c(N)cccc1N` [2,6-Diaminotoluene (2,6-DAT), 2,6-Diaminotoluene], for which the “classification … by Lab D” value in data set [1] is given as “negative”. Moreover, the “top/maximum dose tested, limited” value in data set [2] (setting [3]) is listed as 350 µg/cm^2.

For the compound `COc1cc(/C=C/C(=O)CC(=O)/C=C/c2ccc(O)c(OC)c2)ccc1O` [Curcumin], the “classification in the RSMN assay by Lab B” value (“classification … by Lab B” below) in data set [1] (overall call) is on record as “positive”. The “top/maximum dose tested, limited” value in data set [2] (setting [3]) stood at 160 µg/cm^2.

Regarding `Cc1ccc(N)cc1N` [2,4-Diaminotoluene (2,4-DAT), 2,4-Diaminotoluene], in data set [1] (overall call), the “classification … by Lab A” value was “positive”, the “classification … by Lab B” value was “negative” and the “classification … by Lab D” value was “negative”. The “% MN-BN response in individual experiment(s), Lab B, 72-h protocol” value (shortened to “% MN-BN response … Lab B, 72-h protocol”) in data set [1] (setting [4]) is listed as “negative”. Further, in data set [1] (setting [5]), the “% MN-BN response in individual experiment(s), Lab B, 48-h protocol” value (shortened to “% MN-BN response … Lab B, 48-h protocol”) was “none of which caused a significant increase” and the “% MN-BN response in individual experiment(s), Lab D, 48-h protocol” value (shortened to “% MN-BN response … Lab D, 48-h protocol”) is reported as “negative”. For the same compound, in data set [2] (setting [3]), the “top/maximum dose tested, limited” value stood at 700 µg/cm^2.

Take `CC(=O)O[C@H]1C(=O)[C@@]2(C)[C@H]([C@H](OC(=O)c3ccccc3)[C@]3(O)C[C@H](OC(=O)[C@H](O)[C@@H](NC(=O)c4ccccc4)c4ccccc4)C(C)=C1C3(C)C)[C@]1(OC(C)=O)CO[C@@H]1C[C@@H]2O` [Taxol]: in data set [1] (overall call), the “classification in the RSMN assay by Lab C” value (shortened to “classification … by Lab C”) is “positive”. The “% MN-BN response in individual experiment(s), Lab C, 48-h protocol” value (shortened to “% MN-BN response … Lab C, 48-h protocol”) in data set [1] (setting [5]) is “clear and dose-dependent increase”. Besides, in data set [2] (setting [3]), the “top/maximum dose tested, limited” value is on record as 1.6 µg/cm^2.

In the case of `COS(C)(=O)=O` [Methyl methanesulfonate (MMS), Methyl methanesulfonate], in data set [1] (overall call), the “classification … by Lab B” value is “positive”. Besides, in data set [2] (setting [3]), the “top/maximum dose tested, limited” value is listed as 16 µg/cm^2.

Turning to `O=[N+]([O-])c1ccc(O)cc1` [4-Nitrophenol], in data set [1] (overall call), the “classification … by Lab A” value is “negative”, the “classification … by Lab B” value is recorded as “negative”, the “classification … by Lab C” value is listed as “negative” and the “classification … by Lab D” value is “negative”. Besides, in data set [1] (setting [4]), the “% MN-BN response in individual experiment(s), Lab A, 72-h protocol” value (shortened to “% MN-BN response … Lab A, 72-h protocol”) was “negative” and the “% MN-BN response in individual experiment(s), Lab C, 72-h protocol” value (shortened to “% MN-BN response … Lab C, 72-h protocol”) is “negative”. In data set [1] (setting [5]), the “% MN-BN response in individual experiment(s), Lab A, 48-h protocol” value (shortened to “% MN-BN response … Lab A, 48-h protocol”) was “negative”; the “% MN-BN response … Lab B, 48-h protocol” value is given as “did not find any evidence for an increase”; the “% MN-BN response … Lab C, 48-h protocol” value was “negative”; the “% MN-BN response … Lab D, 48-h protocol” value was “did not find any evidence for an increase”. Moreover, the “top/maximum dose tested, limited” value in data set [2] (setting [3]) was 20–48 µg/cm^2.

Consider `OC[C@@H](O)[C@@H](O)[C@H](O)[C@H](O)CO` [D-Mannitol], for which, in data set [1] (overall call), the “classification … by Lab B” value was “negative” and the “classification … by Lab D” value is on record as “negative”. Besides, in data set [1] (setting [5]), the “% MN-BN response … Lab B, 48-h protocol” value is “no significant increase” and the “% MN-BN response … Lab D, 48-h protocol” value is listed as “no significant increase”. In addition, in data set [2] (setting [6]), the “maximum dose tested without exceeding the cytotoxicity thresholds” value amounted to 1600 µg/cm^2.

On to `Oc1ccccc1` [Phenol], for which, in data set [1], the “% MN-BN response … Lab D, 48-h protocol” value was “significant increase in the % MN-BN was observed only at the highest dose tested” and the “classification … by Lab D” value was “negative”.

With `COC(=O)C1=C(C)NC(C)=C(C(=O)OC)C1c1ccccc1[N+](=O)[O-]` [Nifedipine], the “classification … by Lab A” value in data set [1] (overall call) is “negative”.

In the case of `CC1(C)S[C@@H]2[C@H](NC(=O)[C@H](N)c3ccccc3)C(=O)N2[C@H]1C(=O)O` [Ampicillin sodium salt], in data set [1] (overall call), the “classification … by Lab A” value is “negative”. In addition, the “% MN-BN response … Lab A, 48-h protocol” value in data set [1] (setting [5]) is reported as “no significant increases”. For the same compound, in data set [2] (setting [6]), the “maximum dose tested without exceeding the cytotoxicity thresholds” value worked out at 1600 µg/cm^2.

On to `OCC(Br)CBr` (centres unmarked) [2,3-Dibromo-1-propanol], for which, in data set [1] (overall call), the “classification … by Lab A” value is given as “positive”. Also, in data set [2] (setting [3]), the “top/maximum dose tested, limited” value is listed as 500–600 µg/cm^2.

Regarding `c1ccc2c(c1)ccc1ccccc12` [Phenanthrene], in data set [1], the “% MN-BN response … Lab B, 48-h protocol” value was “negative”; the “% MN-BN response … Lab B, 72-h protocol” value is “no evidence for an increase”; the “% MN-BN response … Lab C, 48-h protocol” value is given as “negative”; the “% MN-BN response … Lab D, 48-h protocol” value is listed as “negative”. Further, in data set [1], the “classification … by Lab A” value is on record as “positive”, the “classification … by Lab B” value is reported as “negative”, the “classification … by Lab C” value is “negative” and the “classification … by Lab D” value is listed as “negative”. The “top dose, limited by precipitation on the surface of the skin tissues” value in data set [2] (lab(s) as stated in the text) is recorded as 200–400 µg/cm^2. For the same compound, the “doses at which precipitation was seen” value in data set [2] (second 48-h experiment, Lab A) is listed as at least 400 µg/cm^2.

In the case of `COc1cc([C@@H]2c3cc4c(cc3[C@@H](O[C@@H]3O[C@@H]5CO[C@@H](C)O[C@H]5[C@H](O)[C@H]3O)[C@H]3COC(=O)[C@H]23)OCO4)cc(OC)c1O` [Etoposide], the “top/maximum dose tested, limited” value in data set [2] (setting [3]) is given as 1.6 µg/cm^2.

Consider `O=C(O)Cc1ccccc1Nc1c(Cl)cccc1Cl` [Diclofenac], for which, in data set [1] (overall call), the “classification … by Lab A” value was “positive”, the “classification … by Lab B” value is reported as “positive” and the “classification … by Lab D” value is “positive”. Besides, in data set [1] (reported by Lab A), the “apoptotic cells alongside the increase of micronuclei” value was “strong increase of apoptotic cells”. Besides, in data set [1] (setting [5]), the “% MN-BN response … Lab A, 48-h protocol” value is given as “significant increases”. For the same compound, in data set [2] (setting [3]), the “top/maximum dose tested, limited” value was 50–80 µg/cm^2.

As to `O=C1CN(/N=C/c2ccc([N+](=O)[O-])o2)C(=O)N1` [Nitrofurantoin], the “classification … by Lab B” value in data set [1] is reported as “negative”. Further, in data set [2] (human), the “maximum dose tested without exceeding the cytotoxicity thresholds” value is given as 1600 µg/cm^2 and the “top/maximum dose tested, limited” value came to 48 µg/cm^2.

In the case of `C1CC2OC2CC1C1CO1` (centres unmarked) [4-Vinyl-1-cyclohexene diepoxide], in data set [1] (overall call), the “classification … by Lab A” value was “positive”, the “classification … by Lab B” value was “positive” and the “classification … by Lab C” value is listed as “positive”. The “% MN-BN response … Lab C, 72-h protocol” value in data set [1] (setting [4]) is on record as “equivocal response”. In data set [1] (setting [5]), the “% MN-BN response … Lab B, 48-h protocol” value is on record as “significant increase”; the “% MN-BN response … Lab C, 48-h protocol” value was “negative”; the “% MN-BN response … Lab D, 48-h protocol” value was “negative”. Further, in data set [2] (setting [3]), the “top/maximum dose tested, limited” value is reported as 64 µg/cm^2.

Consider `Oc1ccc(Cl)cc1Cl` [2,4-Dichlorophenol], for which, in data set [1] (overall call), the “classification … by Lab A” value is “negative” and the “classification … by Lab D” value is “negative”. Also, in data set [1] (setting [5]), the “% MN-BN response … Lab A, 48-h protocol” value is “no statistically significant increases” and the “% MN-BN response … Lab D, 48-h protocol” value is “negative”. Besides, the “top/maximum dose tested, limited” value in data set [2] (setting [3]) worked out at 50 µg/cm^2.

As for `COc1cc2c(c(OC)c1OC)-c1ccc(OC)c(=O)cc1[C@@H](NC(C)=O)CC2` [Colchicine], in data set [1] (overall call), the “classification … by Lab A” value was “positive” and the “classification … by Lab C” value is given as “positive”. In addition, in data set [1] (setting [5]), the “% MN-BN response … Lab A, 48-h protocol” value is “highly significant increases” and the “% MN-BN response … Lab C, 48-h protocol” value is given as “highly significant increases”. Further, in data set [2] (setting [3]), the “top/maximum dose tested, limited” value amounted to 0.03 µg/cm^2.

Regarding `Cc1cn([C@H]2C[C@H](N=[N+]=[N-])[C@@H](CO)O2)c(=O)[nH]c1=O` [Azidothymidine (AZT), Azidothymidine], the “classification … by Lab A” value in data set [1] (overall call) is recorded as “positive”. The “% MN-BN response … Lab A, 72-h protocol” value in data set [1] (setting [4]) is listed as “significant increases”. Also, the “% MN-BN response … Lab A, 48-h protocol” value in data set [1] (setting [5]) is listed as “significant increase”. Besides, the “top/maximum dose tested, limited” value in data set [2] (human) came out at 700 µg/cm^2.

`O=c1[nH]cc(F)c(=O)[nH]1` [5-Fluorouracil]: in data set [1], the “% MN-BN response … Lab B, 48-h protocol” value is on record as “negative results”; the “% MN-BN response … Lab B, 72-h protocol” value is “negative results”; the “classification … by Lab A” value is given as “positive”; the “classification … by Lab B” value is “negative”.

For `CCCCCl` [N-Butyl chloride], in data set [1], the “% MN-BN response … Lab A, 72-h protocol” value is “negative results”; the “% MN-BN response … Lab B, 48-h protocol” value is “no significant increases”; the “% MN-BN response … Lab C, 48-h protocol” value is “no significant increase”; the “% MN-BN response … Lab C, 72-h protocol” value is listed as “no significant increase”. For the same compound, in data set [1], the “% MN-BN response … Lab D, 48-h protocol” value is given as “no significant increases”; the “classification … by Lab A” value is “negative”; the “classification … by Lab B” value is given as “negative”; the “classification … by Lab C” value is given as “negative”. Further, in data set [1], the “classification … by Lab D” value is recorded as “negative”.

On to `CCCCNC(=O)NS(=O)(=O)c1ccc(C)cc1` [Tolbutamide], for which the “classification … by Lab A” value in data set [1] (early Phase 2a only) was “positive”. Moreover, the “classification … by Lab A” value in data set [1] (later Phase 2a testing only, expected outcome negative) was “correctly classified”. Further, in data set [1] (overall call), the “classification … by Lab B” value is reported as “negative” and the “classification … by Lab C” value is reported as “negative”. The “% MN-BN response … Lab C, 48-h protocol” value in data set [1] (setting [5]) is reported as “negative results”.

For the compound `Oc1cccc(O)c1` [Resorcinol], in data set [1], the “% MN-BN response … Lab B, 48-h protocol” value is on record as “significant increase in % MN-BN at the highest dose tested”; the “% MN-BN response … Lab B, 72-h protocol” value is reported as “did not induce any statistically significant increase”; the “classification … by Lab B” value was “negative”.
